Assay results from paper PMC6520677, “Marine Fungi from the Sponge Grantia compressa: Biodiversity, Chemodiversity, and Biotechnological Potential” (Marine Drugs, 2019).
In brackets after ≈: the same amount, converted by molar mass. Like-named read-outs stand apart in the source and are kept apart here.

Tests used:
[1] = system: Pseudomonas aeruginosa ATCC 27853; assay: MIC, broth microdilution (CLSI); type: cell-based
[2] = system: Enterococcus faecalis ATCC 29212; assay: MIC, broth microdilution (CLSI); type: cell-based
[3] = in vitro; conditions: African green monkey
Procedure: (§2) African green monkey kidney cells (VERO, ATCC-American Type Culture Collection CCL-81) and Madin Darby Canine Kidney cells (MDCK, ATCC® CRL-2936™) were propagated in Dulbecco’s modified Eagle medium (DMEM; Euroclone), supplemented with 10% fetal bovine serum (FBS; Euroclone), 2 mM L-glutamine, 1 mM sodium pyruvate, 100 U/mL penicillin, and 100 μg/mL streptomycin sulfate.
(§3) The plates were incubated for 48 h at 37 °C, and then 100 μL of CellTiter-Glo reagent (Promega) was added to lyse the cells and to determine cell viability according to the producer’s instructions.

[4] = system: reference strains and multidrug-resistant isolates; assay: Antibacterial activity, whole panel (MIC); conditions: concentrations tested 0.015–32 μg/mL
Procedure: (§4) Representatives of Gram-positive and Gram-negative bacteria were selected for the antimicrobial susceptibility tests. Three Gram-positive reference strains (Staphylococcus aureus ATCC 29213, Streptococcus pneumoniae ATCC 49619, and Enterococcus faecalis ATCC 29212) and two Gram-negative reference strains (Escherichia coli ATCC 25922 and Pseudomonas aeruginosa ATCC 27853) were used. Furthermore, antibacterial activity of the isolated compounds was also assessed against recently isolated clinical strains, selected and characterized as resistant or multidrug-resistant (MDR), from the MicroMiB collection owned and maintained by the Laboratory of Clinical Microbiology and Virology of the University of Milano-Bicocca, Monza, Italy: a methicillin-resistant Staphylococcus aureus (MRSA) Monza-PFI, a fluoroquinolone-resistant S. aureus Monza-FD1, and a macrolide-resistant S. pneumoniae Monza-82.
(§5) MICs were determined following Clinical and Laboratory Standards Institute (CLSI) guidelines for the broth microdilution method [33]. […]
(§6) The plates were incubated at 37 °C for 18–24 h. After the incubation, each well was checked for the absence of bacterial pellets and the clearness of the solution; then, the MIC value (μg/mL), defined as the lowest concentration of antimicrobial agent causing visible inhibition of bacterial growth, was determined.

[5] = system: Escherichia coli ATCC 25922; assay: MIC, broth microdilution (CLSI); type: cell-based
[6] = system: macrolide-resistant S. pneumoniae Monza-82; assay: MIC, broth microdilution (CLSI); type: cell-based, Streptococcus pneumoniae; conditions: for sensitivity of the strain to the compound: S. pneumoniae Monza-82
[7] = system: methicillin-resistant Staphylococcus aureus (MRSA) Monza-PFI; assay: MIC, broth microdilution (CLSI); type: cell-based
[8] = system: Streptococcus pneumoniae ATCC 49619; assay: MIC, broth microdilution (CLSI); type: cell-based
[9] = system: Staphylococcus aureus ATCC 29213; assay: MIC, broth microdilution (CLSI); type: cell-based
[10] = in vitro; conditions: dog
Procedure: as §2, §3

[11] = system: fluoroquinolone-resistant S. aureus Monza-FD1; assay: MIC, broth microdilution (CLSI); type: cell-based, Staphylococcus aureus
[12] = system: S. aureus strains; assay: MIC, summary in text for S. aureus strains; conditions: Staphylococcus aureus
Procedure: as §4, §5, §6

[13] = system: influenza A virus strain A/Puerto Rico/8/34 (IAV); assay: Plaque reduction assay (PRA) on MDCK cells; type: cell-based
[14] = system: reference and MRSA S. aureus strains; parameters: method as in PMID 23024574; conditions: low concentration tested; cited from earlier work
[15] = system: macrolide-resistant S. pneumoniae Monza-82; assay: MBC determination (plating of MIC wells); type: cell-based, Streptococcus pneumoniae; conditions: for bactericidal activity: S. pneumoniae Monza-82 strain only; for MBC: Streptococcus pneumoniae
Procedure: (§1) Plates were incubated at 37 °C in aerobic conditions or in 5% CO2 atmosphere and checked for bacterial growth after 24 h.

[16] = system: Staphylococcus aureus ATCC 29213; assay: MBC determination (plating of MIC wells); type: cell-based
Procedure: as §1

[17] = system: Enterococcus faecalis ATCC 29212; assay: MBC determination (plating of MIC wells); type: cell-based
Procedure: as §1

[18] = system: methicillin-resistant Staphylococcus aureus (MRSA) Monza-PFI; assay: MBC determination (plating of MIC wells); type: cell-based
Procedure: as §1

[19] = system: fluoroquinolone-resistant S. aureus Monza-FD1; assay: MBC determination (plating of MIC wells); type: cell-based; conditions: Staphylococcus aureus
Procedure: as §1

[20] = Cytotoxicity assay (CellTiter-Glo); conditions: dog
Procedure: as §2, §3

[21] = system: MDCK cells; assay: Cytotoxicity assay (CellTiter-Glo); conditions: MDCK cells, lowest dose 12.5 µg/mL, 48 h
Procedure: as §2, §3

[22] = system: Gram-positive bacteria; assay: MIC, summary in text for Gram-positive bacteria; conditions: majority of Gram-positive bacteria tested (except S. pneumoniae ATCC 49619)
Procedure: as §4, §5, §6

[23] = system: bacteria tested; assay: Bactericidal activity, whole panel (MBC); type: cell-based; conditions: most of the bacteria tested
Procedure: as §1

[24] = system: Klebsiella pneumoniae; parameters: method as in PMID 16261521; conditions: cited from earlier work
[25] = system: Micrococcus luteus; parameters: method as in PMID 16261521; conditions: cited from earlier work
[26] = system: herpes simplex virus 1 (HSV-1) clinical isolate; assay: Plaque reduction assay (PRA) on VERO cells; type: cell-based; conditions: 48 h p.i.
[27] = system: P. aeruginosa; parameters: method as in PMID 16261521; conditions: cited from earlier work
[28] = system: bacteria; parameters: method as in ref 20 Zin et al.; conditions: ref 20 Zin et al.; cited from earlier work
[29] = system: Mycobacterium tuberculosis; parameters: method as in ref 86 Ganihigama et al.; conditions: ref 86 Ganihigama et al.; cited from earlier work
[30] = ATCC27853, P. aeruginosa ATCC 27853, read-out: MIC
[31] = ATCC29212, E. faecalis ATCC 29212, read-out: MIC
[32] = ATCC25922, E. coli ATCC 25922, read-out: MIC
[33] = Streptococcus pneumoniae, S. pneumoniae Monza 82 (macrolide-resistant), read-out: MIC
[34] = S. aureus Monza-PFI (MRSA), read-out: MIC
[35] = ATCC49619, S. pneumoniae ATCC 49619, read-out: MIC
[36] = ATCC29213, S. aureus ATCC 29213, read-out: MIC
[37] = Staphylococcus aureus, S. aureus Monza-FD1 (fluoroquinolone-resistant), read-out: MIC
[38] = Influenza A virus, MDCK, 48 h, read-out: inhibition of replication of IAV
[39] = S. pneumoniae Monza 82 (macrolide-resistant), read-out: MBC
[40] = ATCC29213, S. aureus ATCC 29213, read-out: MBC
[41] = S. aureus Monza-PFI (MRSA), read-out: MBC
[42] = S. aureus Monza-FD1 (fluoroquinolone-resistant), read-out: MBC

| Structure (SMILES) | MIC [1, 30] [µg/mL] | MIC [2, 31] [µg/mL] | MIC [5, 32] [µg/mL] | MIC [6, 33] [µg/mL] | MIC [7, 34] [µg/mL] | MIC [8, 35] [µg/mL] | MIC [9, 36] [µg/mL] | MIC [11, 37] [µg/mL] | MBC [15, 39] [µg/mL] | also measured |
| --- | --- | --- | --- | --- | --- | --- | --- | --- | --- | --- |
| CCCCCCCc1c(O)cc(CC=C(C)C)c(O)c1C=O [Flavoglaucin (5), flavoglaucin] | > 32 | > 32 | > 32 | > 32 | > 32 | > 32 | > 32 | > 32 | – | CC50 at 48 h [3]: < 12.5 µg/mL; antibacterial activity [4]: did not show antibacterial activity; CC50 at 48 h [10]: < 12.5 µg/mL |
| C[C@@H]1NC(=O)[C@H](Cc2c[nH]c3ccccc23)NC1=O [Cyclo-L-Trp-L-Ala (10), cyclo-L-Trp-L-Ala] | > 128 | > 128 | > 128 | > 128 | > 128 | > 128 | > 128 | > 128 | – | – |
| CCC/C=C/C=C/c1c(O)cc(CC=C(C)C)c(O)c1C=O [Dihydroauroglaucin (4), dihydroauroglaucin] | > 128 | 64 (≈ 213 µM) | > 128 | 8 (≈ 26.6 µM) | 128 (≈ 426 µM) | > 128 | 128 (≈ 426 µM) | 128 (≈ 426 µM) | 32 (≈ 107 µM) | MIC [12]: 128 µg/mL (≈ 426 µM); inhibition of replication of IAV [13]: completely inhibited; inhibition at 25 µg/mL [13, 38]: 100%; antibacterial activity [14]: inactive; bactericidal activity [15]: positive results; MBC [16, 40]: > 128 µg/mL; MBC ([17]; ATCC29212, E. faecalis ATCC 29212, read-out: MBC): > 128 µg/mL; MBC [18, 41]: > 128 µg/mL; MBC [19, 42]: > 128 µg/mL |
| C/C=C/C=C/CCc1c(O)cc(CC=C(C)C)c(O)c1C=O [Isodihydroauroglaucin (6), isodihydroauroglaucin] | > 128 | 64 (≈ 213 µM) | > 128 | – | – | > 128 | 64 (≈ 213 µM) | – | – | CC50 at 48 h [20]: < 12.5 µg/mL; cell toxicity (not toxic = at least 70% cell viability) [21]: toxic; MIC ([6]; Streptococcus pneumoniae): 4 µg/mL (≈ 13.3 µM); MIC ([7]; MRSA): 64 µg/mL (≈ 213 µM); MIC values range [22]: 4 to 64 µg/mL; bactericidal activity [23]: bactericidal activity; MBC [15]: 16 µg/mL (≈ 53.3 µM); MBC ([16]; ATCC29213): 128 µg/mL (≈ 426 µM); MBC ([17]; ATCC29212): > 128 µg/mL; MBC ([18]; MRSA): 128 µg/mL (≈ 426 µM); MBC [19]: 64 µg/mL (≈ 213 µM); MIC ([11]; Staphylococcus aureus): 32 µg/mL (≈ 107 µM) |
| COc1cc(O)c2c(c1)C(=O)c1cc(C)cc(O)c1C2=O [Physcion (3), physcion] | > 32 | > 32 | > 32 | 16 (≈ 56.3 µM) | > 32 | > 32 | > 32 | > 32 | > 32 | MIC [24]: 250 µg/mL (≈ 879 µM); MIC [25]: 200 µg/mL (≈ 704 µM); inhibition at 25 µg/mL ([26]; Human alphaherpesvirus 1, compound at 25 µg/mL, read-out: inhibition of HSV-1 replication): 100%; inhibition of HSV-1 replication ([26]; compound at 25 µg/mL): total inhibition; sensitivity of the strain to the compound [6]: showed sensitivity; MIC [27]: 200 µg/mL (≈ 704 µM); inhibition at 25 µg/mL [13, 38]: 80%; antibacterial activity [28]: no antibacterial activity |
| CN(C)[C@@H]1C(O)=C(C(N)=O)C(=O)[C@@]2(O)C(O)=C3C(=O)c4c(O)cccc4[C@@](C)(O)[C@H]3C[C@@H]12 [Tetracycline, tetracycline, reference compound] | 8 (≈ 18 µM) | 8 (≈ 18 µM) | 1 (≈ 2.25 µM) | ≤ 0.06 | 1 (≈ 2.25 µM) | 0.12 (≈ 0.27 µM) | 0.12 (≈ 0.27 µM) | 1 (≈ 2.25 µM) | – | – |
| COc1cc(O)cc2cc3c(c(O)c12)C(=O)C[C@](C)(O)C3 [Asperflavin (8), asperflavin] | > 128 | > 128 | > 128 | 32 (≈ 111 µM) | 128 (≈ 444 µM) | > 128 | 64 (≈ 222 µM) | 64 (≈ 222 µM) | 128 (≈ 444 µM) | MIC [12]: 64 µg/mL (≈ 222 µM); MIC [29]: 25 µg/mL (≈ 86.7 µM); bactericidal activity [15]: positive results; MBC [16, 40]: > 128 µg/mL; MBC [18, 41]: > 128 µg/mL; MBC [19, 42]: > 128 µg/mL |
| COc1cc(O)c2c(c1)C(=O)c1cc(C)c(C(=O)O)c(O)c1C2=O [Cinnalutein (9), cinnalutein] | > 128 | > 128 | > 128 | 32 (≈ 97.5 µM) | > 128 | > 128 | > 128 | 128 (≈ 390 µM) | > 128 | MIC ([6]; S. pneumoniae Monza 82 (macrolide-resistant)): 32 µg/mL (≈ 97.5 µM); MBC [19, 42]: > 128 µg/mL; MIC ([11]; S. aureus Monza-FD1 (fluoroquinolone-resistant)): 128 µg/mL (≈ 390 µM) |
| CC[C@H]1OC(=O)[C@H](C)[C@@H](O[C@H]2C[C@@](C)(OC)[C@@H](O)[C@H](C)O2)[C@H](C)[C@@H](O[C@@H]2O[C@H](C)C[C@H](N(C)C)[C@H]2O)[C@](C)(O)C[C@@H](C)C(=O)[C@H](C)[C@@H](O)[C@]1(C)O [Erythromycin, erythromycin, reference compound] | – | 2 (≈ 2.73 µM) | – | 16 (≈ 21.8 µM) | 8 (≈ 10.9 µM) | 0.12 (≈ 0.164 µM) | 0.5 (≈ 0.681 µM) | 0.5 (≈ 0.681 µM) | – | – |
| C=CC(C)(C)c1[nH]c2c(CC=C(C)C)cc(CC=C(C)C)cc2c1C[C@@H]1NC(=O)[C@H](C)NC1=O [Echinulin (1), echinulin] | – | – | – | – | – | – | – | – | – | MIC ([1]; ATCC27853): > 128 µg/mL; MIC ([2]; ATCC29212): > 128 µg/mL; MIC ([5]; ATCC25922): > 128 µg/mL; MIC ([6]; Streptococcus pneumoniae): > 128 µg/mL; MIC ([7]; MRSA): > 128 µg/mL; MIC ([8]; ATCC49619): > 128 µg/mL; MIC ([9]; ATCC29213): > 128 µg/mL; MIC ([11]; Staphylococcus aureus): > 128 µg/mL |
| CC(=O)O[C@H]1C[C@@]2(C)[C@@H](C[C@@H](O)[C@H]3[C@@]4(C)CC[C@@H](O)[C@@H](C)[C@@H]4CC[C@@]32C)/C1=C(\CCC=C(C)C)C(=O)O [Fusidic acid, fusidic acid, reference compound] | – | 4 (≈ 7.74 µM) | – | – | – | 4 (≈ 7.74 µM) | 0.12 (≈ 0.232 µM) | – | – | – |
| C=CC(C)(C)c1[nH]c2cc(CC=C(C)C)ccc2c1/C=C1\NC(=O)[C@H](C)NC1=O [Neoechinulin D (7), neoechinulin D] | > 128 | > 128 | > 128 | 64 (≈ 163 µM) | > 128 | > 128 | > 128 | > 128 | > 128 | inhibition at 50 µg/mL ([26]; Human alphaherpesvirus 1, compound at 50 µg/mL, read-out: inhibition of HSV-1 replication): 100%; inhibition of HSV-1 replication ([26]; compound at 50 µg/mL): total inhibition; sensitivity of the strain to the compound [6]: showed sensitivity; inhibition at 50 µg/mL [13, 38]: 70% |
| CNC(C)C1CCC(N)C(OC2C(N)CC(N)C(OC3OCC(C)(O)C(NC)C3O)C2O)O1 (stereo not shown) [Gentamicin, reference compound] | 1 (≈ 2.09 µM) | > 128 | 0.5 (≈ 1.05 µM) | – | > 128 | – | 0.5 (≈ 1.05 µM) | 1 (≈ 2.09 µM) | – | – |
